One data set relates to HCT-116 cells. Nature of the data set: MTS assay cell viability under SN-38 exposure, HCT-116. The format is cell-based, human. Particulars: HCT-116, 50 nmol/L SN-38, exposure for 72 hours. As to the method:
(§1) Two human colorectal cancer cell lines (HCT-116 and HT-29) employed were obtained from Kabushiki Kaisha Yakult Honsha.
(§2) Cell culturing was performed by means of a φ100 mm/Tissue Culture Dish (IWAKI) with a medium (Doulbecco's modified Eagle's Medium, 10% fetal bovine serum) at 37° C. under 5% CO2.
(§3) SN-38 powder was obtained from Kabushiki Kaisha Yakult Honsha. SN-38 was dissolved in DMSO, and, before use, the solution was diluted so that the DMSO concentration of each of the culture media employed in experiments was adjusted to 0.1% or less.
(§4) Cells of two colorectal cancer cell lines (HCT-116 and HT-29) were exposed to 50 nmol/L SN-38, and 24, 48, and 72 hours after drug exposure, cell viability was determined by means of an MTS assay (CellTiter96™AQueous One Solution Cell Proliferation Assay, Promega). Sensitivity evaluation of each cell line was performed in triplicate with three different passage numbers of cells, and the mean value and standard deviation were calculated.
(Tetrazolium dyes change colour on reduction, which living cells bring about.)

Another data set has as its system HT-29 cells. As to the kind of experiment: MTS assay cell viability under SN-38 exposure, HT-29. It is filed as cell-based, human. Particulars: HT-29, 50 nmol/L SN-38, exposure for 72 hours. On the procedure: as §1, §2, §3, §4
The next data set relates to WiDr. Nature of the data set: MTS assay sensitivity (IC50) to SN-38, WiDr (Example 3). It is filed as cell-based, human. Particulars: 72 hours exposure, highest IC50 of eight lines. As to the method: (§5) Cancer cells of each cell line were exposed to SN-38 (0 nmol/L to 5 μmol/L) for 72 hours. After exposure to SN-38, cell viability was determined by means of an MTS assay (CellTiter96™AQueous One Solution Cell Proliferation Assay, Promega). IC50 (concentration of SN-38 at which 50% of cells in an SN-38-non-treated well are inhibited) was calculated for each cell line and employed as the sensitivity of the cell line to SN-38. Sensitivity determination of each cell line was performed in triplicate and twice.
(§6) The experiment procedure of Example 2 was repeated twice. The data obtained in the experiments (three times in total) were further analyzed. Peaks detected through CE-TOFMS in the tested cell samples were compared with the data of 278 standard samples whose m/z values and migration times were already known, whereby 146 metabolites were identified in any of the tested cell samples. The 146 metabolites were investigated through single regression analysis in terms of the correlation between the intracellular content (in eight human colorectal cancer cell lines) and Log[IC50] of each cell line.
(§7) The sensitivity of each of eight human colorectal cancer cell lines (HCT-116, HT-29, HCT-15, Lovo, LS174T, SW480, SW620, and WiDr) was evaluated by employing IC50 calculated through MTS assay as an index.

Another data set relates to LS174T. As to the kind of experiment: MTS assay sensitivity (IC50) to SN-38, LS174T (Example 3). It is filed as cell-based, human. Particulars: 72 hours exposure, lowest IC50 of eight lines. As to the method: as §5, §6, §7
The conditions of data set [1]: background statement; cited from earlier work.

By IC50 is commonly meant the concentration that gives 50% inhibition.

For `CCc1c2c(nc3ccc(O)cc13)-c1cc3c(c(=O)n1C2)COC(=O)[C@]3(O)CC` [SN-38, 7-ethyl-10-hydroxycamptothecin], the cell viability entry with HCT-116 cells is on record as “about 35%”; in the data set on HT-29 cells it was “about 85%”. Besides, the IC50 with WiDr worked out at 63.3 ± 10.9 nM; with LS174T, 0.71 ± 0.18 nM. Moreover, the “anti-tumor activity relative to CPT-11” value in data set [1] is listed as “about 100 times to some thousand times that of CPT-11”.

For the molecule `CCc1c2c(nc3ccc(O[C@@H]4O[C@H](C(=O)O)[C@@H](O)[C@H](O)[C@H]4O)cc13)-c1cc3c(c(=O)n1C2)COC(=O)[C@]3(O)CC` [SN-38G, SN-38 glucuronate conjugate], the cytotoxicity result in data set [1] is on record as “no cytotoxicity”.
